Assay results reported in PubChem BioAssay (NCI).
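Method: 48-hour compound exposure of cells in 96-well plates, five concentrations, linear interpolation of endpoints. The concentration for full growth arrest is given as TGI.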

System: UO-31 renal
Assay: NCI tumour cell line growth inhibition, 48 h

| SMILES | TGI [µM] |
| --- | --- |
| CCOC(=O)[C@H](CCCNC(=O)OC(C)(C)C)NCc1ccc(OC)c(OC)c1 | > 100 |
| O=c1cc(-c2ccccc2)[nH]c2cc3c(cc12)OCO3 | > 100 |
| COc1cc2c(cc1OCc1ccccc1)CNCC2 | > 100 |
| CCOC(=O)C(N)CSC(=O)NC (stereo not given) | 602 |
| COC(=O)C1OC(Oc2cc(O)c3c(=O)cc(-c4ccc(O)cc4)oc3c2)C(O)C(O)C1O (stereo not given) | > 100 |

System: HCT-15 colon
Assay: NCI tumour cell line growth inhibition, 48 h

| SMILES | TGI [µM] |
| --- | --- |
| O=c1cc(-c2ccccc2)[nH]c2cc3c(cc12)OCO3 | > 100 |
| COc1cc2c(cc1OCc1ccccc1)CNCC2 | > 100 |
| CCOC(=O)C(N)CSC(=O)NC (stereo not given) | 312 |
| COC(=O)C1OC(Oc2cc(O)c3c(=O)cc(-c4ccc(O)cc4)oc3c2)C(O)C(O)C1O (stereo not given) | > 100 |

System: SK-MEL-5 melanoma
Assay: NCI tumour cell line growth inhibition, 48 h

| SMILES | TGI [µM] |
| --- | --- |
| CCOC(=O)[C@H](CCCNC(=O)OC(C)(C)C)NCc1ccc(OC)c(OC)c1 | > 100 |
| O=c1cc(-c2ccccc2)[nH]c2cc3c(cc12)OCO3 | 51.3 |
| COc1cc2c(cc1OCc1ccccc1)CNCC2 | > 100 |
| CCOC(=O)C(N)CSC(=O)NC (stereo not given) | 393 |
| COC(=O)C1OC(Oc2cc(O)c3c(=O)cc(-c4ccc(O)cc4)oc3c2)C(O)C(O)C1O (stereo not given) | > 100 |

System: XF 498 CNS
Assay: NCI tumour cell line growth inhibition, 48 h

| SMILES | TGI [µM] |
| --- | --- |
| CCOC(=O)[C@H](CCCNC(=O)OC(C)(C)C)NCc1ccc(OC)c(OC)c1 | > 100 |
| O=c1cc(-c2ccccc2)[nH]c2cc3c(cc12)OCO3 | > 67.2 |
| COc1cc2c(cc1OCc1ccccc1)CNCC2 | > 100 |
| CCOC(=O)C(N)CSC(=O)NC (stereo not given) | 289 |
| COC(=O)C1OC(Oc2cc(O)c3c(=O)cc(-c4ccc(O)cc4)oc3c2)C(O)C(O)C1O (stereo not given) | > 100 |

System: UACC-257 melanoma
Assay: NCI tumour cell line growth inhibition, 48 h

| SMILES | TGI [µM] |
| --- | --- |
| CCOC(=O)[C@H](CCCNC(=O)OC(C)(C)C)NCc1ccc(OC)c(OC)c1 | > 100 |
| O=c1cc(-c2ccccc2)[nH]c2cc3c(cc12)OCO3 | > 100 |
| COc1cc2c(cc1OCc1ccccc1)CNCC2 | > 100 |
| CCOC(=O)C(N)CSC(=O)NC (stereo not given) | 535 |
| COC(=O)C1OC(Oc2cc(O)c3c(=O)cc(-c4ccc(O)cc4)oc3c2)C(O)C(O)C1O (stereo not given) | > 100 |

System: T-47D breast
Assay: NCI tumour cell line growth inhibition, 48 h

| SMILES | TGI [µM] |
| --- | --- |
| O=c1cc(-c2ccccc2)[nH]c2cc3c(cc12)OCO3 | > 100 |
| CCOC(=O)C(N)CSC(=O)NC (stereo not given) | 773 |

System: SK-MEL-28 melanoma
Assay: NCI tumour cell line growth inhibition, 48 h

| SMILES | TGI [µM] |
| --- | --- |
| CCOC(=O)[C@H](CCCNC(=O)OC(C)(C)C)NCc1ccc(OC)c(OC)c1 | > 100 |
| O=c1cc(-c2ccccc2)[nH]c2cc3c(cc12)OCO3 | > 100 |
| COc1cc2c(cc1OCc1ccccc1)CNCC2 | > 100 |
| CCOC(=O)C(N)CSC(=O)NC (stereo not given) | 440 |
| COC(=O)C1OC(Oc2cc(O)c3c(=O)cc(-c4ccc(O)cc4)oc3c2)C(O)C(O)C1O (stereo not given) | > 100 |

System: HL-60(TB) leukemia
Assay: NCI tumour cell line growth inhibition, 48 h

| SMILES | TGI [µM] |
| --- | --- |
| CCOC(=O)[C@H](CCCNC(=O)OC(C)(C)C)NCc1ccc(OC)c(OC)c1 | > 100 |
| O=c1cc(-c2ccccc2)[nH]c2cc3c(cc12)OCO3 | 53 |
| COc1cc2c(cc1OCc1ccccc1)CNCC2 | > 100 |
| CCOC(=O)C(N)CSC(=O)NC (stereo not given) | 272 |
| COC(=O)C1OC(Oc2cc(O)c3c(=O)cc(-c4ccc(O)cc4)oc3c2)C(O)C(O)C1O (stereo not given) | > 100 |

System: 786-0 renal
Assay: NCI tumour cell line growth inhibition, 48 h

| SMILES | TGI [µM] |
| --- | --- |
| CCOC(=O)[C@H](CCCNC(=O)OC(C)(C)C)NCc1ccc(OC)c(OC)c1 | > 100 |
| O=c1cc(-c2ccccc2)[nH]c2cc3c(cc12)OCO3 | > 93 |
| COc1cc2c(cc1OCc1ccccc1)CNCC2 | > 100 |
| CCOC(=O)C(N)CSC(=O)NC (stereo not given) | 201 |

System: HOP-62 NSCLC
Assay: NCI tumour cell line growth inhibition, 48 h

| SMILES | TGI [µM] |
| --- | --- |
| CCOC(=O)[C@H](CCCNC(=O)OC(C)(C)C)NCc1ccc(OC)c(OC)c1 | > 100 |
| O=c1cc(-c2ccccc2)[nH]c2cc3c(cc12)OCO3 | > 90.3 |
| COc1cc2c(cc1OCc1ccccc1)CNCC2 | > 100 |
| CCOC(=O)C(N)CSC(=O)NC (stereo not given) | 567 |
| COC(=O)C1OC(Oc2cc(O)c3c(=O)cc(-c4ccc(O)cc4)oc3c2)C(O)C(O)C1O (stereo not given) | > 100 |

System: SNB-19 CNS
Assay: NCI tumour cell line growth inhibition, 48 h

| SMILES | TGI [µM] |
| --- | --- |
| CCOC(=O)[C@H](CCCNC(=O)OC(C)(C)C)NCc1ccc(OC)c(OC)c1 | > 100 |
| O=c1cc(-c2ccccc2)[nH]c2cc3c(cc12)OCO3 | > 100 |
| COc1cc2c(cc1OCc1ccccc1)CNCC2 | > 100 |
| CCOC(=O)C(N)CSC(=O)NC (stereo not given) | 600 |
| COC(=O)C1OC(Oc2cc(O)c3c(=O)cc(-c4ccc(O)cc4)oc3c2)C(O)C(O)C1O (stereo not given) | > 100 |

System: HT29 colon
Assay: NCI tumour cell line growth inhibition, 48 h

| SMILES | TGI [µM] |
| --- | --- |
| CCOC(=O)[C@H](CCCNC(=O)OC(C)(C)C)NCc1ccc(OC)c(OC)c1 | > 100 |
| O=c1cc(-c2ccccc2)[nH]c2cc3c(cc12)OCO3 | > 46.4 |
| COc1cc2c(cc1OCc1ccccc1)CNCC2 | > 100 |
| CCOC(=O)C(N)CSC(=O)NC (stereo not given) | 399 |
| COC(=O)C1OC(Oc2cc(O)c3c(=O)cc(-c4ccc(O)cc4)oc3c2)C(O)C(O)C1O (stereo not given) | > 100 |

System: M14 melanoma
Assay: NCI tumour cell line growth inhibition, 48 h

| SMILES | TGI [µM] |
| --- | --- |
| CCOC(=O)[C@H](CCCNC(=O)OC(C)(C)C)NCc1ccc(OC)c(OC)c1 | > 100 |
| O=c1cc(-c2ccccc2)[nH]c2cc3c(cc12)OCO3 | > 80.2 |
| COc1cc2c(cc1OCc1ccccc1)CNCC2 | > 100 |
| CCOC(=O)C(N)CSC(=O)NC (stereo not given) | 275 |

System: NCI/ADR-RES ovarian
Assay: NCI tumour cell line growth inhibition, 48 h

| SMILES | TGI [µM] |
| --- | --- |
| CCOC(=O)C(N)CSC(=O)NC (stereo not given) | 362 |
| COC(=O)C1OC(Oc2cc(O)c3c(=O)cc(-c4ccc(O)cc4)oc3c2)C(O)C(O)C1O (stereo not given) | > 100 |

System: MDA-MB-435
Assay: NCI tumour cell line growth inhibition, 48 h

| SMILES | TGI [µM] |
| --- | --- |
| CCOC(=O)C(N)CSC(=O)NC (stereo not given) | 98.4 |

System: SF-295 CNS
Assay: NCI tumour cell line growth inhibition, 48 h

| SMILES | TGI [µM] |
| --- | --- |
| CCOC(=O)[C@H](CCCNC(=O)OC(C)(C)C)NCc1ccc(OC)c(OC)c1 | > 100 |
| O=c1cc(-c2ccccc2)[nH]c2cc3c(cc12)OCO3 | > 42.3 |
| COc1cc2c(cc1OCc1ccccc1)CNCC2 | > 100 |
| CCOC(=O)C(N)CSC(=O)NC (stereo not given) | 592 |
| COC(=O)C1OC(Oc2cc(O)c3c(=O)cc(-c4ccc(O)cc4)oc3c2)C(O)C(O)C1O (stereo not given) | > 100 |

System: KM12 colon
Assay: NCI tumour cell line growth inhibition, 48 h

| SMILES | TGI [µM] |
| --- | --- |
| CCOC(=O)[C@H](CCCNC(=O)OC(C)(C)C)NCc1ccc(OC)c(OC)c1 | > 100 |
| O=c1cc(-c2ccccc2)[nH]c2cc3c(cc12)OCO3 | > 93.1 |
| COc1cc2c(cc1OCc1ccccc1)CNCC2 | > 100 |
| CCOC(=O)C(N)CSC(=O)NC (stereo not given) | 460 |
| COC(=O)C1OC(Oc2cc(O)c3c(=O)cc(-c4ccc(O)cc4)oc3c2)C(O)C(O)C1O (stereo not given) | > 100 |

System: HOP-18 NSCLC
Assay: NCI tumour cell line growth inhibition, 48 h

| SMILES | TGI [µM] |
| --- | --- |
| CCOC(=O)[C@H](CCCNC(=O)OC(C)(C)C)NCc1ccc(OC)c(OC)c1 | > 100 |
| O=c1cc(-c2ccccc2)[nH]c2cc3c(cc12)OCO3 | > 100 |
| COc1cc2c(cc1OCc1ccccc1)CNCC2 | > 100 |
